For series [1] the following is noted: Pressman, cited from earlier work.
Series [2] can be described thus: Fluorimetric determination of A23187 in a liposomal formulation. It counts as physicochemical. The note with it: for Amount of A23187 measured: no removal; for remaining A23187 concentration: initial 500 ng. The protocol:
The quantity of A23187 in SPM/Chol LUVs was determined by measuring the fluorescence intensity of the ionophore at an emission wavelength of 437 nm following solubilization of the liposomal formulation and complexation of the released divalent cations. Briefly, an aliquot of LUV/A23187 (corresponding to 5 μmol total lipid) was combined with a 333 mM EDTA solution (3 μL) and the volume was made up to 1 mL with ethanol:methanol (70:30 v:v). The sample was vortexed until clear, and the fluorescence intensity was measured. Calibration standards were prepared by the addition of known aliquots of A23187 to a 1 mL solution consisting of ethanol:methanol (70:30 v:v) and containing 5 mM total lipid.
As mentioned above, the concentration of A23187 in LUVs can be quantitated using a fluorimetric assay which allows determination of the amount remaining following various purification procedures. The results are given in Table 5 for SPM/Chol LUVs initially containing A23187 at a concentration of 0.1 μg/μmol lipid. For sample 1 (S1), 146 ng of A23187 was added to the LUVs, and 123 ng was measured by the assay.

For series [3] the following is noted: large Mn2+ gradient still present; Erdahl et al.; cited from earlier work.
Series [4] can be described thus: Drug uptake/leakage after removal of nigericin (spin column, dialysis). The protocol:
Uptake was monitored for LUVs containing 300 mM K2 SO4 at a nigericin concentration of 1 ng/μmol lipid (.box-solid.), and for LUVs which were preincubated with nigericin for 5 min at 60° C., and then passed down a spin column prior to addition of the drug (.circle-solid.).
Thus, an aliquot of nigericin (1 ng NIG/μmol lipid) was added to a sample of SPM/Chol LUVs containing 300 mm KH2 PO4 and the temperature was increased to 60° C. for 5 min to ensure association of nigericin with the lipid. The sample was then exhaustively dialysed at room temperature against 300 mM sucrose for 20 hours, following which an aliquot was passed down a spin column prior to drug loading with VINC (FIG. 10B).
To ensure that such was not the case, control uptake experiments were performed on LUVs containing ethylammonium sulfate and amylammonium sulfate which were subjected to the same conditions.

The conditions of series [5]: Deamer et al.; cited from earlier work.
For series [6] the following is noted: literature; cited from earlier work.

Like-named read-outs stand apart in the source and are kept apart here.

Turning to `CNc1ccc2oc(C[C@H]3O[C@@]4(CC[C@H]3C)O[C@H]([C@H](C)C(=O)c3ccc[nH]3)[C@H](C)C[C@H]4C)nc2c1C(=O)O` [A23187], the relative binding affinity in series [1] (Ca2+, relative to Mn2+ and Mg2+ (210:2.6:1)) was 2.6; in series [1] (Mg2+, relative to Mn2+ and Ca2+ (210:2.6:1)), 1; in series [1] (Mn2+, relative to Ca2+ and Mg2+ (210:2.6:1)) it was 210. Also, the “divalent cation transport specificity” value in series [1] is “Mn^2+ >Ca^2+ >Mg^2+”. Moreover, the “Amount of A23187 measured” value in series [2] (S1, initial amount 146 ng, SPM/Chol LUVs) turned out to be 123 ng; in series [2] (S4 + 45 ng A23187, initial amount 45 ng), 41 ng; in series [2] (S4 + 90 ng A23187, initial amount 90 ng) it was 94 ng. For the same molecule, the “remaining A23187 level” value in series [2] (S2, Sephadex G-50 column eluted with 300 mM sucrose, initial 109 ng) is “below background”. Further, the “remaining A23187 concentration” value in series [2] (S3, dialysis against 300 mM sucrose) is recorded as “below background levels”; in series [2] (S4, SM-2 biobeads), “below background levels”. Besides, the “fraction of entrapped Mn2+ released from POPC vesicles” value in series [3] is < 1/2.

For the molecule `O=C(O)c1cn(C2CC2)c2cc(N3CCNCC3)c(F)cc2c1=O` [Ciprofloxacin, ciprofloxacin], the entrapment in series [4] (SPM/Chol LUVs, 300 mM K2SO4, nigericin 1 ng/μmol lipid and drug added at same time, D/L 0.2, 60 °C, within 30 min) was 80%. In addition, the “in vitro leakage rates, normal versus nigericin-reduced LUVs” value in series [4] (not shown) was “identical”.

On to `CO[C@@H]1C[C@@H](C[C@H]2CC[C@H](C)[C@H]([C@@H](C)C(=O)O)O2)O[C@]2(O[C@](C)([C@H]3CC[C@@](C)([C@@H]4O[C@@H]([C@H]5O[C@@](O)(CO)[C@H](C)C[C@@H]5C)C[C@@H]4C)O3)C[C@H]2C)[C@@H]1C` [Nigericin, nigericin], for which the “pH gradient formed across sonicated vesicle membranes” value in series [5] is recorded as 2.2 units.

Take `COc1cccc2c1C(=O)c1c(O)c3c(c(O)c1C2=O)C[C@@](O)(C(=O)CO)C[C@@H]3O[C@H]1C[C@H](N)[C@H](O)[C@H](C)O1` [doxorubicin]: in series [6], the “effect of encapsulation on drug toxicity (particularly acute cardiotoxicity)” value was “can decrease drug toxicity”, the “efficacy in liposomally-encapsulated formulations” value is reported as “equal or increased efficacy” and the “toxicity in liposomally-encapsulated formulations” value is on record as “significantly reduced toxicity”.

amylammonium sulfate: in series [4] (control LUVs, same dialysis conditions), the “encapsulation in control LUVs containing amine salt subjected to the same dialysis” value was 80-95%.
